Values after ≈ are worked out from the molar mass of the structure shown. Peptide text beside a SMILES is read from it.
Assays:
S. aureus USA300 = test: microbe, parasite or virus in culture; format: cell-based, Staphylococcus aureus; conditions: USA300
Excerpt: The bacterial strains used include the Gram-positive strains Staphylococcus aureus USA300 LAC, S. epidermidis 1457, and Bacillus subtilis 168, as well as the Gram-negative isolates Escherichia coli K12 and Acinetobacter baumannii B2367-12. Additional, drug resistance strains include Gram-positive Enterococcus faecium V286-17 (VRE) and S. aureus M838-17 (MRSA) and Gram-negative E. coli E423-17, E. coli E416-17 (ampC), and P. aeruginosa E411-17. Bacteria were cultivated in tryptic soy broth (TSB) (BD Bioscience, MD).
(§1) The antibacterial activity of peptides was evaluated using a standard broth microdilution protocol with minor modifications as described (Mishra, et al. (2012) J. Am. Chem. Soc., 134:12426-12429). In brief, logarithmic phase bacterial cultures (i.e., optical density at 600 nm≈0.5) were diluted to OD600 0.001 and partitioned into a 96-well polystyrene microplate at 90 μL per well. After treatment with 10 μL of peptide solutions two fold diluted to various concentrations, microplates were incubated at 37° C. overnight and read on a ChroMate® 4300 Microplate Reader at 630 nm (GMI, Ramsey, MN). […] To study the influence of medium conditions on the antimicrobial activity of peptides against S. aureus USA300, up to 200 mM sodium chloride (NaCl), 2 mM of calcium chloride, 5-10% of human serum, mouse plasma, fluid, or supernatants of tissue homogenates were included into the assays.
(§2) The bacterial strains used include the Gram-positive bacteria methicillin-resistant Staphylococcus aureus USA300, Enterococcus faecium V286-17 (VRE), S. aureus M838-17 (MRSA) and Gram-negative bacteria E. coli E423-17, E416-7 (ampC), P. aeruginosa E411-17, PA01, K. pneumoniae E406-17, ATCC13883, and A. baumannii B26-16. Bacteria were cultivated in tryptic soy broth (TSB) from BD Bioscience.
(§3) The antibacterial activity of peptides was evaluated using a standard broth microdilution protocol with minor modifications (Mishra, et al. (2017) Acta Biomater., 49:316-328). In brief, logarithmic phase bacterial cultures (i.e., optical density at 600 nm≈0.5) were diluted to 0.001 OD and aliquoted 90 μL per well into a 96-well polystyrene microplate. Added 10 μL peptides per well with various concentrations, plates were incubated at 37° C., overnight. Post incubation the plates are read at 630 nm using a ChroMate® Microplate Reader (GMI). […] To study the influence of medium conditions on the antimicrobial activity of peptides against S. aureus USA300 at different pHs (6.8, 7.2, and 8.0), 150 mM sodium chloride (NaCl), 5-10% of human serum, mouse plasma, and peritoneal fluid were included into the assays.

P. aeruginosa PAO1 = format: cell-based, Pseudomonas aeruginosa
Procedure: as §1, §2, §3

E. coli ATCC 25922 = format: cell-based, Escherichia coli; conditions: ATCC 25922
Procedure: as §1, §3

K. pneumoniae ATCC 13883 = format: cell-based, Klebsiella pneumoniae; conditions: ATCC 13883
Procedure: as §1, §2, §3

[1] = system: human red blood cells (hRBCs); test: Hemolytic assay; format: cell-based
Procedure: Briefly, human red blood cells (hRBCs) were washed three times with phosphate buffer saline (PBS) and diluted to a 2% solution (v/v). After peptide treatment, incubation at 37° C. for one hour, and centrifugation at 5000 rpm for 10 minutes, aliquots of the supernatant were carefully transferred to a fresh 96-well microplate. The amount of hemoglobin released was measured at 545 nm. The percent lysis was calculated by assuming 100% release when human blood cells were treated with 2% Triton™ X-100, and 0% release when incubated with PBS buffer. The peptide concentration that caused 50% lysis of hRBCs is defined as HL50. The cell selectivity index (CSI) was calculated as the ratio between HL50 and MIC of the corresponding peptide against a select pathogenic species.
Hemolytic assays of peptides were performed as described (Mishra, et al. (2017) Acta Biomater., 49:316-328). Briefly, human red blood cells (hRBCs) obtained from UNMC Blood Bank. The blood washed 3× with isotonic saline (0.9% NaCl) and diluted to 2% blood cells (v/v). Peptide horine and verine at various concentrations were added into the 2% blood cells and incubated at 37° C. for 1 hour. Post incubation the plates were spun at 2000 rpm for 10 minutes, aliquots of the supernatant were carefully transferred to a fresh 96-well microplate. The amount of cells lysed is proportional to the hemoglobin released and measured at 545 nm using a ChroMate® microplate reader. The percent lysis was calculated by assuming 100% release when human blood cells were treated with 1% Triton™ X-100, and 0% release when incubated with PBS. The peptide concentration that caused 50% lysis of hRBCs is defined as HL50.

| SMILES | MIC S. aureus USA 300 (S. aureus USA300) | Activity against Pseudomonas aeruginosa PAO1 (P. aeruginosa PAO1) | MIC P. aeruginosa PAO1 (P. aeruginosa PAO1) | MIC E. coli ATCC 25922 (E. coli ATCC 25922) | MIC K. pneumoniae (K. pneumoniae ATCC 13883) | HL50 [1] |
| --- | --- | --- | --- | --- | --- | --- |
| CC(C)C[C@H](NC(=O)[C@H](CC(C)C)NC(=O)[C@H](CCCCN)NC(=O)CNC(=O)[C@H](CC(C)C)NC(=O)[C@H](CC(C)C)NC(=O)[C@H](CO)NC(=O)[C@H](CC(C)C)NC(=O)[C@H](CC(C)C)NC(=O)[C@H](CO)NC(=O)[C@H](CC(C)C)NC(=O)[C@H](C)NC(=O)CN)C(N)=O [DFT506, GALSLLSLLGKLL] (H-GALSLLSLLGKLL-NH2; N-terminus assumed) | 0.78 µM (≈ 1.01 µg/mL) | active | 12.5 µM (≈ 16.2 µg/mL) | 3.1 µM (≈ 4.02 µg/mL) | 6.2 µM (≈ 8.04 µg/mL) | 4 µM |
| CC(C)C[C@H](NC(=O)[C@H](CC(C)C)NC(=O)[C@H](CCCCN)NC(=O)CNC(=O)[C@H](CC(C)C)NC(=O)[C@H](CC(C)C)NC(=O)[C@H](CO)NC(=O)[C@H](CC(C)C)NC(=O)[C@H](CC(C)C)NC(=O)[C@H](CO)NC(=O)[C@H](C)NC(=O)[C@H](CC(C)C)NC(=O)CN)C(N)=O [DFT507, GLASLLSLLGKLL] (H-GLASLLSLLGKLL-NH2; N-terminus assumed) | 0.78 µM (≈ 1.01 µg/mL) |  | >25 µM | >25 µM | >25 µM | <3.1 µM |
| CC(C)C[C@H](NC(=O)[C@H](CC(C)C)NC(=O)[C@H](CCCCN)NC(=O)CNC(=O)[C@H](CC(C)C)NC(=O)[C@H](CC(C)C)NC(=O)[C@H](CO)NC(=O)[C@H](CC(C)C)NC(=O)[C@H](C)NC(=O)[C@H](CO)NC(=O)[C@H](CC(C)C)NC(=O)[C@H](CC(C)C)NC(=O)CN)C(N)=O [DFT508, GLLSALSLLGKLL] (H-GLLSALSLLGKLL-NH2; N-terminus assumed) | 0.78 µM (≈ 1.01 µg/mL) |  | >25 µM | 3.1 µM (≈ 4.02 µg/mL) | 3.1 µM (≈ 4.02 µg/mL) | 6 µM |
| CC(C)C[C@H](NC(=O)[C@H](CC(C)C)NC(=O)[C@H](CCCCN)NC(=O)CNC(=O)[C@H](CC(C)C)NC(=O)[C@H](CC(C)C)NC(=O)[C@H](CO)NC(=O)[C@H](C)NC(=O)[C@H](CC(C)C)NC(=O)[C@H](CO)NC(=O)[C@H](CC(C)C)NC(=O)[C@H](CC(C)C)NC(=O)CN)C(N)=O [DFT509, GLLSLASLLGKLL] (H-GLLSLASLLGKLL-NH2; N-terminus assumed) | 0.78 µM (≈ 1.01 µg/mL) |  | 6.2 to 12.5 µM | 1.5 to 3.1 µM | 3.1 µM (≈ 4.02 µg/mL) | 4 µM |
| CC(C)C[C@H](NC(=O)[C@H](CC(C)C)NC(=O)[C@H](CCCCN)NC(=O)CNC(=O)[C@H](CC(C)C)NC(=O)[C@H](C)NC(=O)[C@H](CO)NC(=O)[C@H](CC(C)C)NC(=O)[C@H](CC(C)C)NC(=O)[C@H](CO)NC(=O)[C@H](CC(C)C)NC(=O)[C@H](CC(C)C)NC(=O)CN)C(N)=O [DFT510, GLLSLLSALGKLL] (H-GLLSLLSALGKLL-NH2; N-terminus assumed) | 1.56 µM (≈ 2.02 µg/mL) |  | >25 µM | >25 µM | >25 µM | 19 µM |

— patent US12173088B2, “Anti-microbial peptides” (priority 2018, dated 2024)
